Measured values published in patent US10420759B2, “Small molecule therapies for pulmonary hypertension” (Creighton University, priority 2016, dated 2019).
One block for each compound: values may come before it.

Tests used:
[1] = test system: small pulmonary arteries in mouse precision-cut lung slices; assay: Relaxation of pre-constricted small pulmonary arteries in mouse precision-cut lung slices; type: cell-based; conditions: for maximal relaxation: % relaxation of pre-constriction to 100 nM 5-HT; for EC50: Mus musculus, pre-constricted with 100 nM 5-HT
Experimental: Precision cut lung slices were prepared using a modification of previously reported procedures (see e.g., Jiang et al., 2010, J. Pharmacol. Exp. Ther. 334:703-709) and based on the method described by Perez-Joghbi and Sanderson (see e.g., Perez-Joghbi, J. F. and Sanderson, M. J., Am. J. Physiol., 2007, 293:L1000-L1011). Mice were euthanized with CO2, a 2 cm long incision was made in the midline of the neck above the trachea and the trachea was isolated from surrounding tissue. The trachea was cut open and cannulated with PE 90 plastic tubing. A solution of 2% low melting point agarose (Sigma-Aldrich, St. Louis Mo.) in Hanks Buffered Salt solution (HBSS) was prepared at 37° C. Lungs were inflated by injecting 1.2 ml of 2% agarose followed by 0.2 ml of air through the tracheal cannula. The chest was then opened along the midline and the heart was exposed. A solution of 6% gelatin (Sigma-Aldrich, St. Louis Mo.) was prepared in HBSS and 0.4 mL was injected into the right ventricle using a 1 mL syringe and 26 gauge needle, to fill the pulmonary arteries with gelatin. The mouse was cooled to 4° C. for 15 min to harden the agarose and gelatin to stiffen the lung for sectioning. The individual lung lobes were then isolated, glued to a platform and sliced perpendicular to the long axis of the lung. 150 μm thick slices were prepared in ice cold HBSS using an EMS-4000 tissue slicer (Electron Microscopy Sciences, Fort Wash. Pa.). The slices were maintained in sterile, serum-free Dulbecco's modified Eagle's medium (DMEM, Gibco, Grand Island, N.Y.) containing penicillin (100 U/mL, Cellgro, Manassas, Va.), streptomycin (100 μg/mL, Cellgro, Manassas, Va.) and amphotericin B (1.5 μg/mL, Cellgro, Manassas, Va.) at 37° C. and 5% CO2+95% air in a humidified incubator for not more than 3 days.
The method used to measure constriction and relaxation of pulmonary arteries in lung slices is a modification of a method previously described that was used to measure constriction and relaxation of mouse airways (see e.g., Jiang et al., 2010 J. Pharmacol. Exp. Ther. 334:703-709). Lung slices were placed on glass coverslips in a 1 mL volume incubation chamber and held in place with nylon mesh (Small Parts Inc, Miami Lakes, Fla.). The chamber was placed on the stage of a Nikon (Melville, N.Y.) TE200 inverted microscope at room temperature and slices incubated in HBSS containing 10 mM HEPES buffer. Pulmonary arteries in lung slices were imaged using a 20× objective and images recorded using a CoolSNAP HQ2 digital camera (Photometrics, Tucson Ariz.). Images in the absence and the presence of the vasoconstrictor 5-HT (Sigma-Aldrich, St. Louis, Mo.) and the vasorelaxants pirfenidone (Sigma-Aldrich, St. Louis Mo.) and CXN-8, CXN-9 and CXN-16 were collected and vasoconstriction and vasorelaxation was calculated by pixel summing of the cross-sectional area of the pulmonary artery lumen before and after addition of the test agent, using ImageJ software (http://imagej.nih.gov). A decrease in cross-sectional area was defined as vasoconstriction while an increase in cross-sectional area was defined as vasorelaxation, as shown in FIGS. 1A-1B.
First, small pulmonary arteries were pre-constricted in mouse precision-cut lung slices with 100 nM 5-HT, a concentration that causes submaximal constriction of pulmonary arteries, as shown in FIG. 1A.

[2] = test system: mouse isolated extralobar pulmonary arteries; assay: Relaxation of pre-constricted mouse isolated extralobar pulmonary artery rings (isometric tension); type: cell-based; conditions: for EC50: Mus musculus; for relaxation: 1 μM
Source text: Mouse extralobar pulmonary arteries were isolated and prepared using a modification of a previously reported procedure (see e.g., Bockman et al., 1996, J. Pharmacol. Exp. Ther. 278:1235-1243). Mice were euthanized with CO2, the chest was opened, and the heart and lung combined were isolated from surrounding tissue. The main pulmonary artery was isolated from its origin at the right ventricle, past its bifurcation into the right and left pulmonary arteries. The artery segment was removed and placed in Krebs solution (composition in mM: NaCl 126, KCl 5.5, CaCl2 2.5, NaH2PO4 1.2, MgCl2 1.2, NaHCO3 25, dextrose 11.1, Na2Ca EDTA 0.029) equilibrated with 95%02-5% CO2 (pH 7.4). The pulmonary artery segment was cleaned of connective tissue and the main pulmonary artery and its right and left branches were cut into 2 mm long rings. The rings were mounted using 2 stainless steel pins (0.1 mm in diameter) passed through the artery lumen. One pin was attached to a Kent isometric force transducer (Kent Scientific Corp, Torrington Conn.) for measurement of isometric tension while the second pin was held in a fixed position. This allowed for measurement of contraction and relaxation of the ring in the circular direction. Mounted rings were placed in 10 mL of Krebs solution in glass muscle chambers (Radnoti, Monrovia, Calif.) gassed with 95% 02-5% CO2, and maintained at 37° C. Rings were washed with Krebs solution and equilibrated for 90-120 min at a passive resting tension of 150 mg before experiments with test agents were started.
Mouse isolated extralobar pulmonary arteries were pre-constricted with 250 nM 5-HT, a concentration that causes submaximal constriction, as shown in FIG. 2A. Cumulative addition of pirfenidone and CXN-8 caused a concentration-dependent relaxation of mouse pulmonary arteries with a maximal relaxation of 84.9±3.4% and 76.7±7.0%, respectively, as shown in FIG. 2B.
The endothelium was removed from pulmonary arteries by inserting a small (200 μm diameter) wire into the inside lumen of the arteries and gently rubbing the internal surface. To test for the presence of functional endothelium, rings with and without rubbing were contracted with 250 nM 5-HT followed by relaxation using 1 μM of the endothelium dependent vasorelaxant acetylcholine. Rings that relaxed by 5% or less were considered as lacking the endothelium. Rings with and without endothelium were used to test the relaxant effects of CXN-8.
The synthesis of NO is mediated by a family of NO synthase enzymes. It is well accepted that acetylcholine induces relaxation of pulmonary arteries via endothelium-dependent NO production. Nitric oxide production was inhibited in pulmonary arteries by 30 min incubation with the nitric oxide synthesis inhibitor nitro-L-arginine methyl ester (L-NAME, 100 μM). To test for nitric oxide synthase inhibition by L-NAME, rings were contracted with 250 nM 5-HT followed by relaxation using 1 μM of the nitric oxide dependent vasorelaxant acetylcholine. The relaxant effects of CXN-8 were then tested in rings in the absence (with nitric oxide) and the presence (without nitric oxide) of L-NAME.

eNOS−/− mice = assay: Right ventricular systolic pressure (RVSP) in eNOS-knockout mice, acute intravenous CXN-8; type: in vivo, mouse; conditions: 4.6 mg/kg i.v. via femoral vein, baseline 40.7±7.6 mmHg
Experimental: (§1) Mice (20-25 g) were anesthetized via an intraperitoneal (i.p.) injection of a combination of xylazine (10 mg/kg body weight) and ketamine (100 mg/kg body weight). One-half dose was given as supplemental anesthesia as needed. Animals were placed on a heating pad set to maintain body temperature at approximately 37° C. The neck and upper chest area were cleaned with 70% isopropyl alcohol and a 2 cm long incision was made anterior to the manubrium on the right side and above the jugular fossa. The jugular fossa was identified and the external jugular vein was isolated from surrounding tissue. The anterior projection of the jugular vein was tied off with 8-0 silk suture and a 1 mm incision was made in the jugular vein. A 1 French Mikro-Tip pressure catheter (Millar Inc, Houston, Tex.) catheter was inserted into the jugular vein and advanced through the right atrium into the right ventricle to measure ventricular systolic pressure of mice via a pressure transducer using PowerLab monitoring hardware and software (AD Instruments, Colorado Springs, Colo., USA). The pressure catheter was secured in place using an 8-0 silk suture tied around the catheterized jugular vein. […]
(§2) CXN-8 was administered intravenously in a dose-escalation manner in 15 minute intervals from doses of 0.14 mg/kg to 4.6 mg/kg. Hemodynamic indices, including heart rate (HR) and RVSP were measured. […]

RGS2−/− mice = assay: RVSP in RGS2 knockout mice, acute intravenous CXN-8; type: in vivo, mouse; conditions: RGS2 KO mice, 4.6 mg/kg i.v. via femoral vein; baseline 36.7±1.9 mmHg
Experimental: as §1, §2

hypoxic mice (C57BL/6) = assay: RVSP in chronic hypoxia model of PH in mice, acute intravenous CXN-8; type: in vivo, mouse; conditions: 1.4 mg/kg i.v. via femoral vein, baseline 56.4±1.0 mmHg
Experimental: as §1, §2

[3] = test system: mouse isolated extralobar pulmonary arteries; assay: Relaxation of pre-constricted mouse isolated extralobar pulmonary artery rings (isometric tension); type: cell-based; conditions: for EC50: Mus musculus
[4] = 250 nM 5-HT, pre-treatment with L-NAME (100 μM)
[5] = endothelium-denuded arteries, 250 nM 5-HT
[6] = intact rings pre-constricted with 250 nM 5-HT

EC50 [1]: 5.6 nM
EC50 ([2]; 250 nM 5-HT, absence of L-NAME): 5.6 nM
EC50 [2, 4]: 9.9 nM
EC50 [2, 5]: 10.9 nM
EC50 [2, 6]: 5.2 nM
EC50 ([3]; ET-1 pre-contracted arteries): 21.7 nM
EC50 ([3]; U46619 pre-contracted arteries): 40.3 nM
SMILES: Cc1ccc(=O)n(-c2ccc(OCCCN3CCCCC3)cc2)c1 [CXN-8, 5-methyl-1-(4-(3-(piperidin-1-yl)propoxy)phenyl)pyridin-2(1H)-one]
maximal relaxation [1]: 77.1±9.6%
maximal relaxation ([2]; 250 nM 5-HT, absence of L-NAME): 74.5±7.4%
maximal relaxation [2, 4]: 45.5±6.2%
maximal relaxation [2, 5]: 47.2±2.9%
maximal relaxation [2, 6]: 76.7±7.0%
RVSP after treatment (eNOS−/− mice): 29.3±1.5 mmHg
RVSP after treatment (RGS2−/− mice): 19.6±0.9 mmHg
RVSP after treatment (hypoxic mice (C57BL/6)): 37.4±1.7 mmHg
maximal relaxation ([3]; U46619 (20 nM) pre-contracted arteries): 70.6±7.1%
maximal relaxation ([3]; endothelin 1 (ET-1, 10 nM) pre-contracted arteries): 86.6±4.1%

EC50 ([1]; cumulative addition): 14300 nM
EC50 [2, 6]: 94000 nM
SMILES: Cc1ccc(=O)n(-c2ccccc2)c1 [pirfenidone, 5-methyl-1-phenylpyridin-2(1H)-one, reference compound]
maximal relaxation [1]: 81.2±4.8%
maximal relaxation [2, 6]: 84.9±3.4%

SMILES: Cc1ccc(=O)n(-c2ccc(OCCCCN3CCCCC3)cc2)c1 [CXN-9, 5-methyl-1-(4-(4-(piperidin-1-yl)butoxy)phenyl)pyridin-2(1H)-one]
EC50 [1]: 69.8 nM

SMILES: CC(=O)OCC[N+](C)(C)C [acetylcholine, reference compound]
relaxation ([2]; 250 nM 5-HT-pre-contracted endothelium-denuded arteries): 5%
relaxation ([2]; 250 nM 5-HT-pre-contracted endothelium-intact arteries): 42%

SMILES: Cc1ccc(=O)n(-c2ccc(OCCCCN(C)C)cc2)c1 [CXN-16, 1-(4-(4-(dimethylamino)butoxy)phenyl)-5-methylpyridin-2(1H)-one]
EC50 ([1]; unit inferred): 1700 nM
